From patent US11191736B2, “Pharmaceutical formulations containing cannabidiol and nicotine for treating smokeless tobacco addiction” (CV Sciences, Inc., priority 2016, dated 2021)

Key:
MAO-A enzyme = biological target: T1, MAO-A enzyme (Homo sapiens, UniProt P21397); test: MAO-Glo luminescent assay, MAO-A inhibition; assay type: biochemical; details: FIG. 1
T1 sequence (P21397 1-527): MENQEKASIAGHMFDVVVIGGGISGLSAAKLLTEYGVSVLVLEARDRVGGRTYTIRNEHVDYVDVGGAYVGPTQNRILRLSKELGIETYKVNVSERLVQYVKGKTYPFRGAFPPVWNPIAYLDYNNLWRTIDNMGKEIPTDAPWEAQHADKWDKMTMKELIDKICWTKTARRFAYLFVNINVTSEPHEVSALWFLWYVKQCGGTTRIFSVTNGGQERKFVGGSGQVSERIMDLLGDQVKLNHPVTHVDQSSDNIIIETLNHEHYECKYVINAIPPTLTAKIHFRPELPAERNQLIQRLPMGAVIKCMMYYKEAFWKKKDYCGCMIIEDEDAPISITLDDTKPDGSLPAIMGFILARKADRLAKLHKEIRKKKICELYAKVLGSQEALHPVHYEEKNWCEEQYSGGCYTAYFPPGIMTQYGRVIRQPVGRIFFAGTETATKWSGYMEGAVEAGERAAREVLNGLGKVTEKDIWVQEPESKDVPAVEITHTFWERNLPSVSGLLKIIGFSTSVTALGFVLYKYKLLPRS
Excerpt: (§1) This example describes experiments for determining monoamine oxidase (MAO) inhibition activity for cannabidiol. MAOs are enzymes located on the outer membrane of mitochondria and are involved in the catabolism of monoamine neurotransmitters. There are two well-characterized isoenzymes: MAO-A, which predominantly catabolizes serotonin and norepinephrine, and MAO-B, which preferentially catabolizes benzylamine and phenylethylamine. Dopamine and tyramine are metabolized by both isoforms.
(§2) To detect the activity of MAO, a luminescent method (MAO-Glo Assay kit, from Promega, Cat #V1401) was used. In this method, a MAO substrate (a derivative of beetle luciferin provided in the kit) is mixed with the compound to be tested (in this case, myosmine and control compounds). Then, the MAO-A or MAO-B enzyme is added to the mixture and incubated with the reaction for 1 hour at room temperature. The MAO enzymes, if not inhibited by the test compound, will convert the substrate into methyl ester luciferin. Finally, a luciferin detection reagent (provided by the kit) is added (20 minutes at room temperature) to stop the MAO reaction and convert methyl ester luciferin into D-luciferin. […] The luminescent signal is measured and recorded using a luminometer.

monoamine oxidase (MAO) = details: Current Drug Safety, 2011, Vol. 6, No. 4; cited from earlier work
MAO-B enzyme = biological target: T2, MAO-B enzyme (Homo sapiens, UniProt P27338); test: MAO-Glo luminescent assay, MAO-B inhibition; assay type: biochemical; details: FIG. 2
T2 sequence (P27338 1-520): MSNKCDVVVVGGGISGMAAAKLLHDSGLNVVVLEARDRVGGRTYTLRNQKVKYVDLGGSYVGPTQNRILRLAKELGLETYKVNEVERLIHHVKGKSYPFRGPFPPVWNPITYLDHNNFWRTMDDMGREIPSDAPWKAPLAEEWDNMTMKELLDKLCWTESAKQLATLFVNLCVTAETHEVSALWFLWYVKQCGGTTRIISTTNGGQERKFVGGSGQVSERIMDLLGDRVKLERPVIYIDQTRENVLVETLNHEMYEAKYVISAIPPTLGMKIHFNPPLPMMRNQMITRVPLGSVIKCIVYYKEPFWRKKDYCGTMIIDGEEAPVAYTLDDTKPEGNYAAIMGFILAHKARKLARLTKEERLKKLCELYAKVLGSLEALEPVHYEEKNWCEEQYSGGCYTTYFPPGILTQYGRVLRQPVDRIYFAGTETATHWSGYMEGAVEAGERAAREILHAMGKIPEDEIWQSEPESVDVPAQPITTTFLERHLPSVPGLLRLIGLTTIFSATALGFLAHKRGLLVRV
Excerpt: as §1, §2

[1] = at a concentration of 7.5 mM (7,500 micromolar)

For `C=C(C)[C@@H]1CCC(C)=C[C@H]1c1c(O)cc(CCCCC)cc1O` [CBD, 2-[(1R,6R)-3-methyl-6-(1-methylethenyl)-2-cyclohexen-1-yl]-5-pentyl-1,3-benzenediol], the “MAO-A inhibition, result in words” value (MAO-A enzyme; compared with nornicotine) is given as “potent inhibitor of MAO-A, in fact to an even greater extent than nornicotine”, the inhibition at 7500 µM (MAO-A enzyme; [1]) is given as roughly 50% and the “inhibiting monoamine oxidase (MAO) activity, prior report” value (monoamine oxidase (MAO)) is given as “ineffective”. The “MAO-B inhibition, result in words” value (MAO-B enzyme; compared with MAO-A activity) was “also inhibits MAO-B activity, although to a lesser extent than MAO-A activity” and the inhibition at 7500 µM (MAO-B enzyme; [1]) was roughly 30%.
